Here are results for one compound from patent US20200405700A1 (priority 2019, published 2020).

Each structure is given as a SMILES string.

The nature of this data set: Aerodynamic particle size distribution on Next Generation Impactor (NGI). To be noted: sample 14 sprayed by soft mist inhaler, NGI at 30 L/min. It is filed as physicochemical. On the procedure: Sample 14 was sprayed by a soft mist inhaler. Aerodynamic particle size distribution of droplets of sample 14 was measured on a Next Generation Impactor (NGI). Next Generation Impactor operated at a flow rate of 30 L/min was used for determination of particle size distribution. For each of the impactor experiments, the impactor collection stages were coated with a silicone oil. The particle size distribution is expressed in terms of mass median aerodynamic diameter (MMAD) and Geometric Standard Deviation (GSD).

For `O=C(O[C@H]1C[N+]2(CCCOc3ccccc3)CCC1CC2)C(O)(c1cccs1)c1cccs1.[Br-]` [Aclidinium bromide, 3(R)-(2-hydroxy-2,2-dithien-2-ylacetoxy)-1-(3-phenoxypropyl)-1-azoniabicy-clo[2.2.2]octane bromide], the “MMAD (mass median aerodynamic diameter)” value worked out at 4.49 μm.
